Data reported in patent publication US20100143960A1, “CYANINE DERIVATIVES, FLUORESCENT CONJUGATES CONTAINING SAME AND USE THEREOF” (CIS BIO INTERNATIONAL, priority 2007, published 2010).

Legend:
[1] = Comparison of quantum yields / fluorescence spectrum of cyanine derivatives carrying phosphonate groups; type: physicochemical
Protocol: Fluorescence spectrum: Measurement on a Perkin-Elmer LS50 device, the samples were diluted in phosphate buffer 0.1M pH 7 containing 0.1% BSA (maximum absorbance=0.04 at the excitation wavelength). Excitation: 600 nm (10 nm). Emission (max)=670.5 nm (quantum yield=13%).
The phosphate/phosphonate ester functional groups of the cyanine derivatives according to the invention are hydrolyzed in the cell by cell enzymes to give phosphate/phosphonate functional groups. The quantum yields of the cyanine derivatives carrying phosphonate groups, thus corresponding to the compounds according to the invention as present in the cell after hydrolysis of the ester functional groups, were measured in order to determine if the position of the phosphate/phosphonate ester groups influences the photophysical properties of the compounds.

[2] = test system: stable CHO line expressing SnapTag in the nucleus; assay: Test of cell permeability of benzylguanine conjugates (fluorescence microscopy); type: cell-based; conditions: 5 μM in culture medium, one hour contact, washing, additional hour, microscopic analysis, FIG. 1
Protocol: The cells used result from a stable CHO line expressing SnapTag in the nucleus by virtue of the NLS sequence. The compounds are added to the culture medium (DMEM medium supplemented with 10% of inactivated SVF, 30 min at 60° C.) at a concentration of 5 μM and left in contact with the cells for one hour. After the incubation, three washing operations are carried out with culture medium. An additional hour of incubation solely in the medium is carried out in order to make possible the labeling of the SnapTag by the substrate. Staining of the […] is subsequently carried out with DAPI before the microscopic analysis.
The above images are represented in FIG. 1.

[3] = test system: fusion protein GST-ST26-Flag in CHO-K1 cells; assay: Labeling of an intracellular protein in intact living cells, detected by HTRF measurement; type: cell-based; conditions: 5 μM substrate, 3 h at 20° C.
Excerpt: This example is targeted at showing that the compounds according to the invention comprising a phosphonate ester and conjugated to a substrate (benzylguanine, BG) for a “snaptag” suicide enzyme (ST26) are capable of passing through the cell membrane and of labeling a fusion protein expressed by the cell and comprising the snaptag enzyme ([…]), in contrast to the use of a cyanine not comprising phosphonate esters (DY-647).
The HTRF technique is used to test the intracellular labeling of a protein by the cyanine derivatives according to the invention, on living cells, using the recombinant protein GST-ST26-Flag produced by the cells and labeled indirectly via an anti-GST antibody conjugated with a europium trisbipyridine cryptate (anti-GST-EuTBP).
After culturing, CHO-K1 cells are transfected in the presence of lipofectamine 2000 (0.8 μl per 50 μl of transfection solution, Lipofectamine™ Transfection Reagent, Invitrogen Inc., Carlsbad, Calif.) at the rate of 50 000 cells per well in a black 96-well microplate. The transfected cells are subsequently incubated for 24 h at 37° C., 5% CO2. […]
The fluorescence at 665 nm is measured on an HTRF reader (RUBYstar, BMG Labtechnologies). […]

[4] = aqueous medium, nonsulfonated; cited from earlier work
[5] = in solution; cited from earlier work
[6] = phosphate buffer 0.1M pH 7 containing 0.1% BSA, excitation 600 nm

## 2-{(1E,3E,5E)-5-[3-(5-Carboxypentyl)-3-methyl-4-ethyl-5-phosphono-1,3-dihydro-2H-indol-2-ylidene]penta-1,3-dienyl}-5-phosphono-3,3-dimethyl-1-(4-ethyl)-3H-indolium [compound 19]
[1]; [6]
  Emission (max): 670.5 nm
  quantum yield: 13%
[1]; phosphonate (hydrolyzed) form
  Wavelength of max. absorption: 649 nm
  Wavelength of max. emission: 670 nm
  quantum yield: 13%

## CCN1/C(=C/C=C/C=C/C2=[N+](CC)c3ccc(S(=O)(=O)[O-])cc3C2(C)C)C(C)(CCCC(=O)NCc2ccc(COc3nc(N)nc4[nH]cnc34)cc2)c2cc(S(=O)(=O)O)ccc21 (stereo not shown) [BG-DY647]
[2]
  passage through the plasma membrane of the cells (intracellular fluorescence): have not passed through the plasma membrane
[3]; CHO-K1, HTRF with anti-GST-EuTBP, FIG. 2
  percentage of intracellular labeling (signal at 665 nm passive labeling / total labeling): penetrates poorly into cells
[3]; intact CHO-K1 cells
  passes through the cell membrane and labels an intracellular protein: not the case

## CN1C(=CC=C2CCCC(C=CC3=[N+](C)c4ccccc4C3(C)C)=C2Cl)C(C)(C)c2ccccc21.[O-][Cl+3]([O-])([O-])[O-] [IR-786]
[4]
  solubility: less than 10 μM

## CC1(C)C(/C=C/C=C/C=C/C=C2\N(CCCCS(=O)(=O)O)c3ccc4ccccc4c3C2(C)C)=[N+](CCCCS(=O)(=O)[O-])c2ccc3ccccc3c21 [indocyanine green]
[5]
  concentration above which quantum yield falls due to formation of aggregates: greater than 125 μM
